Assay results: patent US10125167B2, “Compositions and methods for treating MRSA infections and for sensitizing MRSA to beta-lactam antibiotics” (Arizona Board of Regents on behalf of Arizona State …, priority 2015, dated 2018)
In brackets after ≈: the same amount, converted by molar mass. Read-outs that look alike come from different tables or passages of the source.

Columns and labels:
USA300-HI168 = test: Synergy of ASU014 with antibiotics (MIC/FIC); assay type: cell-based, S. aureus; conditions: for Antibiotic MIC, Antibiotic Only: USA300-HI168; for Antibiotic MIC +¼ MIC (ASU014) / FIC +¼ MIC (ASU014): USA300-HI168, with ¼ MIC ASU014; for Antibiotic MIC +½ MIC (ASU014) / FIC +½ MIC (ASU014): USA300-HI168, with ½ MIC ASU014
MSSA = test: MIC against a panel of Gram-positive and Gram-negative bacteria; assay type: cell-based, S. aureus
[1] = test system: MRSA (USA300) BEI: FOO3/HI168; test: as above; assay type: cell-based, Staphylococcus aureus
MRSA (USA300-LAC) = test: as above; assay type: cell-based, Staphylococcus aureus
[2] = test system: MRSA (USA400) BEI: HFH-30364; test: as above; assay type: cell-based, Staphylococcus aureus
[3] = test system: MRSA (USA500) BEI: HFH-30522; test: as above; assay type: cell-based, Staphylococcus aureus
USA100 = test: Synergy of ASU014 with antibiotics (MIC/FIC); assay type: cell-based, S. aureus; conditions: for Antibiotic MIC +¼ MIC (ASU014) / FIC +¼ MIC (ASU014): USA100, with ¼ MIC ASU014; for Antibiotic MIC +½ MIC (ASU014) / FIC +½ MIC (ASU014): USA100, with ½ MIC ASU014; for Antibiotic MIC +⅛ MIC (ASU014) / FIC +⅛ MIC (ASU014): USA100, with ⅛ MIC ASU014; for Antibiotic MIC, Antibiotic Only: USA100
USA300-LAC = test: Synergy of ASU014 with antibiotics (MIC/FIC); assay type: cell-based, S. aureus
MSSA UAB637 = test: Synergy of ASU014 with antibiotics (MIC/FIC); assay type: cell-based, S. aureus
[4] = test system: MRSA (USA100) BEI: HFH-30123; test: MIC against a panel of Gram-positive and Gram-negative bacteria; assay type: cell-based; conditions: Staphylococcus aureus
P. aeruginosa PAO1 = test: as above; assay type: cell-based; conditions: Pseudomonas aeruginosa
[5] = USA300-HI168, with ⅛ MIC ASU014
[6] = Staphylococcus aureus, read-out: MIC

Compound	Antibiotic MIC, Antibiotic Only (USA300-HI168) [µg/mL]	Antibiotic MIC +¼ MIC (ASU014) (USA300-HI168) [µg/mL]	FIC +¼ MIC (ASU014) (USA300-HI168)	Antibiotic MIC +½ MIC (ASU014) (USA300-HI168) [µg/mL]	FIC +½ MIC (ASU014) (USA300-HI168)	Antibiotic MIC +⅛ MIC (ASU014) (USA300-HI168; [5]) [µg/mL]	Antibiotic MIC +¼ MIC (ASU014) (USA100) [µg/mL]	FIC +¼ MIC (ASU014) (USA100)	Antibiotic MIC +½ MIC (ASU014) (USA100) [µg/mL]	FIC +½ MIC (ASU014) (USA100)	Antibiotic MIC +⅛ MIC (ASU014) (USA100) [µg/mL]	FIC +⅛ MIC (ASU014) (USA100)	Antibiotic MIC, Antibiotic Only (USA100) [µg/mL]	other results
[H]/N=C(/N)N[C@H]1[C@H](O)[C@@H](O)[C@H](O[C@@H]2O[C@@H](C)[C@](O)(C=O)[C@H]2O[C@@H]2O[C@@H](CO)[C@H](O)[C@@H](O)[C@@H]2NC)[C@@H](N/C(N)=N\[H])[C@@H]1O [Streptomycin]	4	2	0.75	0.5	0.63	4								
O=C(O)c1cn(C2CC2)c2cc(N3CCNCC3)c(F)cc2c1=O [Cipro, Ciprofloxacin]							>32		>32		>32		>32	MIC (MSSA; [6]): 0.25 µg/mL (≈ 0.754 µM); MIC [4]: > 4 µg/mL; MIC [1, 6]: 0.5 µg/mL (≈ 1.51 µM); MIC [2, 6]: 0.5 µg/mL (≈ 1.51 µM); MIC [3, 6]: > 4 µg/mL; MIC (P. aeruginosa PAO1): 0.5 µg/mL (≈ 1.51 µM)
CC1(C)S[C@@H]2[C@H](NC(=O)[C@H](N)c3ccc(O)cc3)C(=O)N2[C@H]1C(=O)O [Amoxicillin, amoxicillin]							32	0.38	4	0.52	>256		>256	MIC (USA100; Staphylococcus aureus, MRSA / USA100, this MRSA strain, antibiotic alone): > 256 µg/mL

More lines, main results first:

Antibiotic MIC, Antibiotic Only (USA300-HI168) [µg/mL]	Antibiotic MIC +¼ MIC (ASU014) (USA300-HI168) [µg/mL]	FIC +¼ MIC (ASU014) (USA300-HI168)	Antibiotic MIC +½ MIC (ASU014) (USA300-HI168) [µg/mL]	FIC +½ MIC (ASU014) (USA300-HI168)	Antibiotic MIC +⅛ MIC (ASU014) (USA300-HI168; [5]) [µg/mL]	Antibiotic MIC +¼ MIC (ASU014) (USA100) [µg/mL]	FIC +¼ MIC (ASU014) (USA100)	Antibiotic MIC +½ MIC (ASU014) (USA100) [µg/mL]	FIC +½ MIC (ASU014) (USA100)	Antibiotic MIC +⅛ MIC (ASU014) (USA100) [µg/mL]	FIC +⅛ MIC (ASU014) (USA100)	Antibiotic MIC, Antibiotic Only (USA100) [µg/mL]	Compound	other results
2	0.125	0.31	0.063	0.53	0.5	8	0.31	4	0.53	64	0.63		Cc1onc(-c2ccccc2)c1C(=O)N[C@@H]1C(=O)N2[C@@H]1SC(C)(C)[C@@H]2C(=O)O [Oxa, oxacillin]	MIC (MSSA): <0.25 µg/mL; MIC [1]: 32 µg/mL (≈ 79.7 µM); MIC (MRSA (USA300-LAC)): 64 µg/mL (≈ 159 µM); MIC [2]: 8 µg/mL (≈ 19.9 µM); MIC [3]: 8 µg/mL (≈ 19.9 µM); Antibiotic MIC, Antibiotic Only (USA300-LAC): 64 µg/mL; Antibiotic MIC +¼ MIC (ASU014) (USA300-LAC; with ¼ MIC ASU014): 4 µg/mL; FIC +¼ MIC (ASU014) (USA300-LAC; with ¼ MIC ASU014): 0.31; Antibiotic MIC +½ MIC (ASU014) (USA300-LAC; with ½ MIC ASU014): 4 µg/mL; FIC +½ MIC (ASU014) (USA300-LAC; with ½ MIC ASU014): 0.56; Antibiotic MIC +⅛ MIC (ASU014) (USA300-LAC; with ⅛ MIC ASU014): 8 µg/mL; FIC +⅛ MIC (ASU014) (USA300-LAC; with ⅛ MIC ASU014): 0.25; FIC +⅛ MIC (ASU014) (USA300-HI168; [5]): 0.38; Antibiotic MIC, Antibiotic Only (MSSA UAB637; MSSA UAB637): 0.125 µg/mL; Antibiotic MIC +¼ MIC (ASU014) (MSSA UAB637; MSSA UAB637, with ¼ MIC ASU014): 0.125 µg/mL; Antibiotic MIC +½ MIC (ASU014) (MSSA UAB637; MSSA UAB637, with ½ MIC ASU014): 0.125 µg/mL; Antibiotic MIC +⅛ MIC (ASU014) (MSSA UAB637; MSSA UAB637, with ⅛ MIC ASU014): 0.125 µg/mL
						2	0.31	2	0.56	8	0.38	32	CCOc1ccc2ccccc2c1C(=O)N[C@@H]1C(=O)N2[C@@H]1SC(C)(C)[C@@H]2C(=O)O [Nafcillin, nafcillin]	
